Source: patent US20100093973A1, “POLY(AMINO ACID) COMPOUND HAVING INHIBITORY ACTIVITY ON ABSORPTION OF PHOSPHORUS AND PHOSPHORUS ABSORPTION INHIBITOR” (priority 2007, published 2010)
Where a name gives a salt, the structure may show the parent alone.

What was measured:
[1] = system: absorption of phosphorus; test: Evaluation of efficacy as phosphorus absorption inhibitors: serum radioactivity AUC (0-120 min) after oral 32P NaH2PO4 in rats, inhibitory rate; type: in vivo; conditions: rats of SD line, 32P NaH2PO4 given orally 5 min later, serum radioactivity AUC 0-120 min vs control; for Inhibitory Rate (%) of Phosphorus Absorption: oral dose 100 mg/5 mL/kg; for 50 mg/kg Inhibition (%): oral dose 50 mg/5 mL/kg
Description: Seven-week-old male rats of SD line (available from SANKYO Labo-Service Co., Ltd.), as test animals, were kept and acclimatized using the usual feed (Solid CRF-1 available from ORIENTAL Yeast Co., Ltd.) and they were used in the following tests after they were fasted overnight. Each candidate substance (synthesized compound) dissolved in distilled water for injection (Otsuka Pharmaceutical Co., Ltd.) was orally administered in a dose of 100 mg/5 mL/kg or 50 mg/5 mL/kg and after 5 minutes from the administration, 3 mg/3 mL/kg, 1 MBq/kg of an NaH2PO4 solution containing ^32P (available from PerkinElmer Company) was orally administered. Subsequently, the blood was collected with the elapse of time through the caudal vein of the test animal to thus obtain the serum thereof and the radioactivity of 40 μL of the serum was determined using a liquid scintillation counter. The inhibitory rate (%) for each candidate compound was calculated on the basis of the foregoing measured values according to the following equation: […]

[2] = in vitro; type: cell-based; conditions: for IC50 at 1 day: dog
Description: MDCK Cells were inoculated into wells of a 96-well plate filled with D-MEM/F12 culture medium (available from GIBCO Company) supplemented with 10% FBS (available from TISSUE CULTURE BIOLOGICALS Company). After the cultivation of the cells for 3 days in a CO2 incubator, the culture medium was removed, a culture medium, in which each candidate substance (synthesized compound) had been dissolved, was added, followed by the cultivation for one day. To each well, there was added 10 μL of Cell Count Reagent SF (available from NAKARAI TESUKU K.K.), followed by the cultivation thereof for 2 hours and the subsequent determination of the absorbance observed at a wavelength of 460 nm. The IC50 values each were calculated on the basis of these measured values.

NCCCC[C@H](N)C(=O)NCCCC[C@H](NC(=O)[C@@H](N)CCCCN)C(=O)NCCCNCCCCNCCCNC(=O)[C@H](CCCCNC(=O)[C@@H](N)CCCCN)NC(=O)[C@@H](N)CCCCN [Example 7, SPM(Lys)6 Hydrochloride]
Inhibitory Rate (%) of Phosphorus Absorption [1]: 24%
IC50 [2]: > 10000 µg/mL

NCCCC[C@H](N)C(=O)NCCCC[C@H](N)C(=O)N(CCCCN(CCCNC(=O)[C@@H](N)CCCCN)C(=O)[C@@H](N)CCCCNC(=O)[C@@H](N)CCCCN)CCCNC(=O)[C@@H](N)CCCCN [Example 6, SPM(Lys)6 Hydrochloride]
Inhibitory Rate (%) of Phosphorus Absorption [1]: 30%
IC50 at 1 day [2]: > 10000 µg/mL

NCCCC[C@H](N)C(=O)N(CCCCN(CCCNC(=O)[C@@H](N)CCCN)C(=O)[C@@H](N)CCCCN)CCCNC(=O)[C@@H](N)CCCN [Example 13, SPM(Orn)2(Lys)2 Hydrochloride]
Inhibitory Rate (%) of Phosphorus Absorption [1]: 36%
IC50 at 1 day [2]: > 10000 µg/mL

NCCCC[C@H](N)C(=O)NCCCC[C@H](NC(=O)[C@@H](N)CCCCN)C(=O)NCCCN(CCCCN(CCCNC(=O)[C@H](CCCCNC(=O)[C@@H](N)CCCCN)NC(=O)[C@@H](N)CCCCN)C(=O)[C@H](CCCCNC(=O)[C@@H](N)CCCCN)NC(=O)[C@@H](N)CCCCN)C(=O)[C@H](CCCCNC(=O)[C@@H](N)CCCCN)NC(=O)[C@@H](N)CCCCN [Example 2, SPM(Lys)12 Hydrochloride]
Inhibitory Rate (%) of Phosphorus Absorption [1]: 52%
IC50 at 1 day [2]: > 10000 µg/mL

NCCCC[C@H](N)C(=O)NCCCC[C@H](NC(=O)[C@@H](N)CCCCN)C(=O)N(CCCN)CCCCN(CCCN)C(=O)[C@H](CCCCNC(=O)[C@@H](N)CCCCN)NC(=O)[C@@H](N)CCCCN [Example 12, SPM(Lys)6 Hydrochloride]
Inhibitory Rate (%) of Phosphorus Absorption [1]: 43%
IC50 at 1 day [2]: > 10000 µg/mL

NCCC[C@H](N)C(=O)NCCC[C@H](N)C(=O)NCCCN(CCCCN(CCCNC(=O)[C@@H](N)CCCNC(=O)[C@@H](N)CCCN)C(=O)[C@@H](N)CCCNC(=O)[C@@H](N)CCCN)C(=O)[C@@H](N)CCCNC(=O)[C@@H](N)CCCN [Example 14, SPM(Orn)8 Hydrochloride]
Inhibitory Rate (%) of Phosphorus Absorption [1]: 46%
IC50 at 1 day [2]: > 10000 µg/mL

N=C(N)NCCC[C@H](N)C(=O)NCCCN(CCCCN(CCCNC(=O)[C@@H](N)CCCNC(=N)N)C(=O)[C@@H](N)CCCNC(=N)N)C(=O)[C@@H](N)CCCNC(=N)N [Example 5, SPM(Arg)4 Hydrochloride]
Inhibitory Rate (%) of Phosphorus Absorption [1]: 52%
IC50 at 1 day [2]: > 10000 µg/mL

NCCC[C@H](NC(=O)[C@H](CCCN)NC(=O)[C@@H](N)CCCN)C(=O)NCCCN(CCCCN(CCCNC(=O)[C@H](CCCN)NC(=O)[C@H](CCCN)NC(=O)[C@@H](N)CCCN)C(=O)[C@H](CCCN)NC(=O)[C@H](CCCN)NC(=O)[C@@H](N)CCCN)C(=O)[C@H](CCCN)NC(=O)[C@H](CCCN)NC(=O)[C@@H](N)CCCN [Example 28, SPM(Orn)12 Hydrochloride]
Inhibitory Rate (%) of Phosphorus Absorption [1]: 66%
IC50 at 1 day [2]: > 10000 µg/mL

NCCCC[C@H](NC(=O)[C@@H](N)CCCCN)C(=O)NCCCC[C@H](N)C(=O)NCCCN(CCCCN(CCCNC(=O)[C@@H](N)CCCCNC(=O)[C@H](CCCCN)NC(=O)[C@@H](N)CCCCN)C(=O)[C@@H](N)CCCCNC(=O)[C@H](CCCCN)NC(=O)[C@@H](N)CCCCN)C(=O)[C@@H](N)CCCCNC(=O)[C@H](CCCCN)NC(=O)[C@@H](N)CCCCN [Example 29, SPM(Lys)12 Hydrochloride]
Inhibitory Rate (%) of Phosphorus Absorption [1]: 55%
IC50 at 1 day [2]: > 10000 µg/mL

TETA(OrnOrn)2(LeuOrn)2 Hydrochloride [Example 73]
50 mg/kg Inhibition (%) [1]: 52%

NCCCC[C@H](NC(=O)[C@H](CCCCN)NC(=O)[C@@H](N)CCCCN)C(=O)NCCCN(CCCCN(CCCNC(=O)[C@H](CCCCN)NC(=O)[C@H](CCCCN)NC(=O)[C@@H](N)CCCCN)C(=O)[C@H](CCCCN)NC(=O)[C@H](CCCCN)NC(=O)[C@@H](N)CCCCN)C(=O)[C@H](CCCCN)NC(=O)[C@H](CCCCN)NC(=O)[C@@H](N)CCCCN [Example 20, SPM(Lys)12 Hydrochloride]
Inhibitory Rate (%) of Phosphorus Absorption [1]: 60%
IC50 at 1 day [2]: > 10000 µg/mL

NCCCC[C@H](N)C(=O)NCCCC[C@H](N)C(=O)NCCCN(CCCCN(CCCNC(=O)[C@@H](N)CCCCNC(=O)[C@@H](N)CCCCN)C(=O)[C@@H](N)CCCCNC(=O)[C@@H](N)CCCCN)C(=O)[C@@H](N)CCCCNC(=O)[C@@H](N)CCCCN [Example 15, SPM(Lys)8 Hydrochloride]
Inhibitory Rate (%) of Phosphorus Absorption [1]: 33%
IC50 at 1 day [2]: > 10000 µg/mL

TETA[Orn(Orn)2]2(Orn)2 TFA Salt [Example 36]
50 mg/kg Inhibition (%) [1]: 55%

SPM(Lys)9 Hydrochloride [Example 27]
Inhibitory Rate (%) of Phosphorus Absorption [1]: 64%

NCCC[C@H](N)C(=O)NCCCN(CCCCN(CCCNC(=O)[C@@H](N)CCCN)C(=O)[C@@H](N)CCCN)C(=O)[C@@H](N)CCCN [Example 4, SPM(Orn)4 Hydrochloride]
Inhibitory Rate (%) of Phosphorus Absorption [1]: 58%
IC50 at 1 day [2]: > 10000 µg/mL

TAA[PheDab(Dab)2]3 Hydrochloride [Example 71]
50 mg/kg Inhibition (%) [1]: 54%

TETA(PheOrn)2(OrnOrn)2 Hydrochloride [Example 37]
50 mg/kg Inhibition (%) [1]: 60%

TETA(OrnPheOrn)4 Hydrochloride [Example 70]
50 mg/kg Inhibition (%) [1]: 57%

TETA(PheOrnDab)4 Hydrochloride [Example 67]
50 mg/kg Inhibition (%) [1]: 84%

TETA[Dab(Dab)2]4 Hydrochloride [Example 53]
50 mg/kg Inhibition (%) [1]: 60%

TETA(OrnPheDab)4 Hydrochloride [Example 69]
50 mg/kg Inhibition (%) [1]: 67%

TETA(4-NH2Bz)4(Orn)4(Orn)8 Hydrochloride [Example 62]
50 mg/kg Inhibition (%) [1]: 66%

TETA[Lys(Dab)2]4 TFA Salt [Example 54]
50 mg/kg Inhibition (%) [1]: 53%

TAA(TrpOrnOrn)3 Hydrochloride [Example 60]
50 mg/kg Inhibition (%) [1]: 64%

TETA(OrnOrnOrn)2(ProOrnOrn)2 Hydrochloride [Example 65]
50 mg/kg Inhibition (%) [1]: 57%

NCCCC[C@H](NC(=O)[C@@H](N)CCCCN)C(=O)NCCCN(CCCCN(CCCNC(=O)[C@H](CCCCN)NC(=O)[C@@H](N)CCCCN)C(=O)[C@H](CCCCN)NC(=O)[C@@H](N)CCCCN)C(=O)[C@H](CCCCN)NC(=O)[C@@H](N)CCCCN [Example 16, SPM(Lys)8 Hydrochloride]
Inhibitory Rate (%) of Phosphorus Absorption [1]: 49%
IC50 at 1 day [2]: > 10000 µg/mL

TAA[(Benzoyl-4-methylene)DETA]3 Hydrochloride [Example 76]
50 mg/kg Inhibition (%) [1]: 78%

TETA[Orn(Orn)2]2(Orn)2 Hydrochloride [Example 39]
50 mg/kg Inhibition (%) [1]: 55) %

TETA(Phe-αOrnOrn)4 Hydrochloride [Example 49]
50 mg/kg Inhibition (%) [1]: 74%
